Source: ChEMBL document CHEMBL5390238, “The mechanisms of multidrug resistance of breast cancer and research progress on related reversal agents” (Bioorg Med Chem, 2023)

Key:
Estrogen receptor = molecular target: T1, Estrogen receptor (Homo sapiens, UniProt P03372); assay: Inhibition of human ERalpha expressed in Saccharomyces cerevisiae co-expressing lacZ using CPRG as substrate incubated for 48 hrs by Colorimetric assay
T1 sequence (P03372 whole entry): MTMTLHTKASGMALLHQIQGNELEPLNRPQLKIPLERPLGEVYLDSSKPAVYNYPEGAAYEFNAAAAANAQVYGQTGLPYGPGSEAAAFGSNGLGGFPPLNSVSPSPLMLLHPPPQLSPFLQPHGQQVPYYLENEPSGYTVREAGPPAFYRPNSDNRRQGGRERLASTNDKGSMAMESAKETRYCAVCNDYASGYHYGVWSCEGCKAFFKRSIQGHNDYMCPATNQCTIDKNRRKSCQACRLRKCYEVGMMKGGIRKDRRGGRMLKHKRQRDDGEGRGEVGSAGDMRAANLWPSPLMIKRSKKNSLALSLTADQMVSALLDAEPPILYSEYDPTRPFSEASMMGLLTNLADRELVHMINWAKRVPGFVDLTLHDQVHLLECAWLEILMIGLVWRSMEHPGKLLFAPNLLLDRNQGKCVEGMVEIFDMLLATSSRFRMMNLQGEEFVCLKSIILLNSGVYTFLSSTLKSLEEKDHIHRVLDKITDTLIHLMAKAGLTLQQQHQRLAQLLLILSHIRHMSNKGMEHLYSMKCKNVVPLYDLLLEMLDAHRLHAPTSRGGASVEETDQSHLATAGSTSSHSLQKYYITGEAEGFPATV

[1] = Antiproliferative activity against human MCF7/BUS cells assessed as cell growth inhibition incubated for 6 days by MTT assay; type: functional, cell-based; conditions: 144 h
HeLa = assay: Antiproliferative activity against human HeLa cells assessed as inhibition of cell growth incubated for 72 hrs by MTT assay; type: functional, cell-based
HaCaT = assay: Cytotoxicity against human HaCaT cells incubated for 72 hrs by MTT assay; type: functional, cell-based
HCT-116 = assay: Cytotoxicity against human HCT-116 cells assessed as cell viability measured as mitochondrial NADH-dependent dehydrogenase activity incubated for 72 to 120 hrs; type: functional, cell-based
HepG2 = assay: Antiproliferative activity against human HepG2 cells assessed as inhibition of cell growth incubated for 48 hrs by MTT assay; type: functional, cell-based; conditions: HepG2, 48 h
[2] = Antiproliferative activity against multidrug resistant human MDA-MB-231/TxR cells assessed as inhibition of cell growth preincubated for 24 hrs followed by taxol treatment for 24 hrs by MTT assay; type: functional, cell-based
MDA-MB-231 = assay: Antiproliferative activity against human MDA-MB-231 cells assessed as cell growth inhibition; type: functional
MCF7 [3] = assay: Antiproliferative activity against human MCF-7 cells assessed as cell growth inhibition; type: functional
[4] = Cytotoxicity against human RL14 cells incubated for 72 hrs by resazurin blue assay; type: toxicity, cell-based
MCF7 [5] = assay: Cytotoxicity against human MCF7 cells assessed as inhibition of cell growth in presence of paclitaxel by MTT assay; type: functional, cell-based
MCF7 [6] = assay: Cytotoxicity against human MCF7 cells; type: functional, cell-based
MCF7 [7] = assay: Antiproliferative activity against human MCF-7 cells assessed as inhibition of cell growth incubated for 48 hrs by MTT assay; type: functional, cell-based; conditions: MCF7, 48 h
NCI/ADR-RES = assay: Cytotoxicity against human MCF7ADR cells; type: functional, cell-based

Q: Which IC50 (Estrogen receptor) does the source give for `CCC(Cc1ccc(OC)cc1)=C(c1ccc(O)cc1)c1ccc(OCCCN(C)C)cc1` here?
A: 0.51 µM

Q: And the IC50 [1]?
A: 0.096 µM

Q: For `Cc1nc(C)c(COC(=O)[C@]23CCC(C)(C)C[C@H]2C2=CC[C@@H]4[C@@]5(C)CC[C@H](OC(=O)CN)C(C)(C)[C@@H]5CC[C@@]4(C)[C@]2(C)CC3)nc1C`, which IC50 (HeLa) is on record?
A: 3.2 µM

Q: With `Oc1ccc(/C=C/c2cc(O)cc(O)c2)cc1` [RESVERATROL] as the compound, how does the IC50 (HaCaT) read?
A: 183 µM

Q: With `COc1ccc(/C(C#N)=C/c2ccc(N3CCC(O)CC3)s2)cc1OC` as the compound, how does the IC50 (HCT-116) read?
A: 0.01 µM

Q: For `COc1cc([C@H]2OC[C@H]3[C@@H]2CO[C@@H]3c2ccc(O)c(OC)c2)ccc1O`, which IC50 (HepG2) is on record?
A: 0.051 µM

Q: For `CC(C)=CCC[C@@H](C(=O)O)[C@H]1CC[C@@]2(C)C3=C(CC[C@]12C)[C@@]1(C)CC[C@H](O)C(C)(C)[C@@H]1CC3` [TRAMETENOLIC ACID], which IC50 [2] is on record?
A: 0.102 µM

Q: For `COc1cc(/C=C/c2ccc(SC)cc2)cc(OC)c1`, which IC50 (HaCaT) is on record?
A: 25.3 µM

Q: Which GI50 (MDA-MB-231) does the source give for `CCC(Cc1ccccc1)=C(c1ccc(OCCN2CCCC2)cc1)c1ccc(OC(=O)NCc2ccccc2)cc1` here?
A: 1.84 µM

Q: What about the GI50 (MCF7 [3]) of the same compound?
A: 0.09 µM

Q: With `CC/C(=C(\c1ccccc1)c1ccc(OCCN(C)C)cc1)c1ccccc1` [TAMOXIFEN] as the compound, how does the IC50 [1] read?
A: 0.503 µM

Q: Which IC50 at 72 h [4] does the source give for `COc1cccc2c1C(=O)c1c(O)c3c(c(O)c1C2=O)C[C@@](O)(C(=O)CO)C[C@@H]3O[C@H]1C[C@H](NC(=O)CNC(=O)Oc2ccc(C3=C(O)C(=O)C4C(O)=CC(O)=CC4O3)cc2O)[C@H](O)[C@H](C)O1` (stereo partly specified) here?
A: 0.005 µM

Q: For `COc1cc(/C=C/C(=O)CC(=O)/C=C/c2ccc(O)c(OC)c2)ccc1O` [CURCUMIN], which IC50 (MCF7 [5]) is on record?
A: 0.088 µM

Q: For `CO[C@]1(CC[C@H](C)CO[C@@H]2O[C@H](CO)[C@@H](O)[C@H](O)[C@H]2O)O[C@H]2C[C@H]3[C@@H]4CC[C@@H]5C[C@@H](O[C@@H]6O[C@H](CO)[C@H](O[C@@H]7O[C@H](CO)[C@@H](O)[C@H](O[C@@H]8OC[C@@H](O)[C@H](O)[C@H]8O)[C@H]7O[C@@H]7O[C@H](CO)[C@H](O)[C@H](O)[C@H]7O)[C@H](O)[C@H]6O)CC[C@]5(C)[C@H]4CC[C@]3(C)[C@H]2[C@@H]1C`, which IC50 (MCF7 [6]) is on record?
A: 0.0052 µM

Q: With `CCNCc1ccccc1[Se][Se]c1ccccc1CNCC` as the compound, how does the IC50 (MCF7 [7]) read?
A: 0.015 µM

Q: For `O=c1cc(-c2ccc(O)cc2)oc2cc(O)cc(O)c12` [APIGENIN], which IC50 (NCI/ADR-RES) is on record?
A: 0.2 µM
